# Experiments:
# E. coli [1] = assay: MIC of AMPs against E. coli; format: cell-based, Escherichia coli; settings: Table 3; two values per AMP
# S. aureus [2] = assay: MIC of AMPs / enzyme against S. aureus; format: cell-based, Staphylococcus aureus; settings: Table 3; two values per AMP
# [3] = Toxicity of AMPs (Table 3, method not described); design: unit not given here; settings: two values per AMP
# E. coli [4] = assay: Exponential phase OD600 AMP killing assay on E. coli; format: cell-based, Escherichia coli; settings: concentration not singled out (192 and 640 μg/mL tested)
# Procedure: (§1) 1. Inoculate the appropriate host strain in LB medium with the appropriate selective marker and incubate with shaking at 37° C. overnight. 2. Re-dilute the culture 1:5000 into LB with the appropriate selective marker and grow at 300 rpm and 37° C. to an OD600 between 0.2 and 0.4.3. Add the appropriate amount of AMP or bacteriophage to the wells, running at least duplicate samples, preferably triplicates, and always carrying a no treatment control to control for phage contamination. 4. Sample points every 5 minutes using an automated 96-well assay plate capable heated and shaking plate reader.
# (§2) The inventors tested a panel of AMPs, shown in Table 3 to assess which AMP has the greatest bacteriocidality against both E. coli and S. aureus. Cultures were grown to an optical density measured at 600 nm between 0.3-0.6 and then the AMPs were added in the respective concentrations. The decrease in OD600 is assessed as the killing of bacterial cells by the AMP, if the OD600 drops, other results cannot be inferred, as the information gained is from the OD600 is limited. The abbreviation SA denotes tests on Staphylococcus aureus, whereas EC denotes Escherichia coli bacteria. Experiments were run in duplicate. The nomenclature of these graphs follows the pattern: Strain.AMP.Concentration(μg/mL).replicate #(1 or 2). […]
# S. aureus [5] = assay: Exponential phase OD600 AMP killing assay on S. aureus; format: cell-based, Staphylococcus aureus; settings: concentration not singled out (192 and 640 μg/mL tested)
# Procedure: as §1, §2
substance,measurement,setting,value
"J589_A7: AMP, RLCRIVVIRVCR (SEQ ID NO: 10) (listed as Bos taurus)",MIC E. coli,E. coli [1],64 µg/mL
same,MIC S. aureus,S. aureus [2],64 µg/mL
same,Toxicity,[3],256
same,bacteriocidal / bacteriostatic action on E. coli (OD600),E. coli [4],intermediate bacteriocidal action
same,bacteriocidal / bacteriostatic action on S. aureus (OD600),S. aureus [5],no effects

# From patent US10676721B2, “Bacteriophages expressing antimicrobial peptides and uses thereof” (priority 2009, dated 2020)
